Patent publication US11174250B2, “Substituted carboxamides as inhibitors of WDR5 protein-protein binding” (PROPELLON THERAPEUTICS INC., priority 2016, dated 2021)
Where two headings read alike, the source gives them in different places.

Experiments:
[1] = test system: MV4-11 cells; assay: Cell proliferation assay (ATPlite); type: cell-based; settings: Homo sapiens, MV4-11, 120 h; MV-411 cells, five days; read-out: In vitro whole cell potency in MV-411 cells, (IC50)
Description: MV4-11 cells were seeded into a 96-well plate at 1,000 cells/well in 150 μl medium (Alpha-MEM containing 10% FBS, 100 μg/ml Normocin, and 50 μg/ml Gentamycin, Invitrogen). A HP D300 digital dispenser was used to dose cells with DMSO or test compounds across a 10-point range of concentrations (high dose of 10 μM), and cultures were grown in a humidified 5% CO2 incubator at 37° C. After five days, plates were removed from incubator and equilibrated to room temperature. An equal volume of ATPlite assay reagent was added to each well, and samples were processed according to manufacturer's instructions (Perkin Elmer). Luminescent signal was measured using an Envision plate reader equipped with a US-Luminescence detector.

[2] = molecular target: MLL1-WRAD2 complex (Homo sapiens (Human), UniProt P61964); assay: MLL1-WRAD2 enzyme assay (in vitro methyl transferase assay); type: biochemical
Description: Reaction was initiated with 1 μM 3H-SAM and incubated for 1 hour at 30° C. Reaction mixture was transferred to P81 filter-paper and washed with PBS before detection.

[3] = molecular target: WDR5 protein (Homo sapiens (Human), UniProt P61964); assay: Surface Plasmon Resonance (SPR) assay; type: binding; settings: for residence time: τ=1/koff, read-out: Residence Time (t, min)
[4] = MLL1-WRAD2 assay, read-out: In vitro MLL1 activity (IC50)
[5] = SPR, Table 1, read-out: WDR5 binding affinity (KD)
[6] = SPR, Table 2, read-out: WDR5 binding affinity SPR (KD)

Row | SMILES | IC50 [1] | IC50 [2, 4] | Kd [3, 5] | Kd [3, 6] | residence time ([3]; SPR) | IC50 ([2]; Table 4, effect of Fluoro-substitution, read-out: IC50 (MLL1)) | τ ([3]; Table 4, effect of Fluoro-substitution) | Kd ([3]; Table 4, effect of Fluoro-substitution, read-out: KD (SPR))
1 | COCOc1cc(F)c(-c2ccc(N3CCN(C)CC3)c(NC(=O)c3c[nH]c(=O)cc3C(F)(F)F)c2)cc1C(=O)NC(C)(C)CC(C)(C)C [Example 3, N-(2′-fluoro-4′-(methoxymethoxy)-4-(4-methylpiperazin-1-yl)-5′-((2,4,4-trimethylpentan-2-yl)carbamoyl)-[1,1′-biphenyl]-3-yl)-6-oxo-4-(trifluoromethyl)-1,6-dihydropyridine-3-carboxamide] | 3180 nM | 966 nM | 11 nM | 11 nM | 6.4 min |  |  | 
2 | CN1CCN(c2ccc(-c3cc(CNC4CCCCC4)ccc3F)cc2NC(=O)c2c[nH]c(=O)cc2C(F)(F)F)CC1 [Example 7, N-(5′-((cyclohexylamino)methyl)-2′-fluoro-4-(4-methylpiperazin-1-yl)-[1,1′-biphenyl]-3-yl)-6-oxo-4-(trifluoromethyl)-1,6-dihydropyridine-3-carboxamide] | 410 nM | 216 nM | 4 nM | 4 nM | 7.88 min |  |  | 
3 | CN1CCN(c2ccc(-c3cc(OCC4CC4)ncc3F)cc2NC(=O)c2c[nH]c(=O)cc2C(F)(F)F)CC1 [Example 15, N-(5-(2-(cyclopropylmethoxy)-5-fluoropyridin-4-yl)-2-(4-methylpiperazin-1-yl)phenyl)-6-oxo-4-(trifluoromethyl)-1,6-dihydropyridine-3-carboxamide] | 2260 nM | 2250 nM | 9 nM | 9 nM | 4.04 min |  |  | 
4 | CC1CN(c2ccc(-c3cc(CN4CCOCC4)ccc3F)cc2NC(=O)c2c[nH]c(=O)cc2C(F)(F)F)CCN1C (stereo not shown) [Example 26, N-(4-(3,4-dimethylpiperazin-1-yl)-2′-fluoro-5′-(morpholinomethyl)-[1,1′-biphenyl]-3-yl)-6-hydroxy-4-(trifluoromethyl)nicotinamide] | 491 nM |  | 9 nM | 9 nM | 3.07 min |  |  | 
5 | CN1CCN(c2ccc(-c3cc(CN4CCOCC4)ccc3F)cc2NC(=O)c2cc(O)cc(F)c2F)CC1 [Example 48, 2,3-difluoro-N-(2′-fluoro-4-(4-methylpiperazin-1-yl)-5′-(morpholinomethyl)-[1,1′-biphenyl]-3-yl)-5-hydroxybenzamide] |  | 21300 nM | 93 nM | 93 nM | 0.61 min |  |  | 
6 | C[C@@H]1CN(c2ccc(-c3cc(CN4CCOCC4)cnc3F)cc2NC(=O)c2c[nH]c(=O)cc2C(F)(F)F)C[C@H](C)N1C [Example 60, N-(5-(2-fluoro-5-(morpholinomethyl)pyridin-3-yl)-2-((3S,5R)-3,4,5-trimethylpiperazin-1-yl)phenyl)-6-oxo-4-(trifluoromethyl)-1,6-dihydropyridine-3-carboxamide] |  | 1410 nM | 7 nM | 7 nM | 9.5 min |  |  | 
7 | CN1CCN(c2ccc(-c3cc(CN4CCOCC4)cnc3F)cc2NC(=O)c2c[nH]c(=O)cc2C(F)(F)F)CC1 [Example 61, N-(5-(2-fluoro-5-(morpholinomethyl)pyridin-3-yl)-2-(4-methylpiperazin-1-yl)phenyl)-6-oxo-4-(trifluoromethyl)-1,6-dihydropyridine-3-carboxamide] |  | 4490 nM | 7 nM | 7 nM | 2.29 min |  |  | 
8 | CCN1CCN(c2ccc(-c3cc(CN4CCOCC4)ccc3F)cc2NC(=O)c2c[nH]c(=O)cc2C(F)(F)F)CC1 [Example 62, N-(4-(4-ethylpiperazin-1-yl)-2′-fluoro-5′-(morpholinomethyl)-[1,1′-biphenyl]-3-yl)-6-oxo-4-(trifluoromethyl)-1,6-dihydropyridine-3-carboxamide] |  | 13500 nM | > 200 nM | > 200 nM |  |  |  | 
9 | CN1CCN(c2ccc(-c3cc(CN4CCOCC4)ccc3F)cc2NC(=O)c2c[nH]c(=O)cc2C(F)(F)F)CC1CO (stereo not shown) [Example 65, N-(2′-fluoro-4-(3-(hydroxymethyl)-4-methylpiperazin-1-yl)-5′-(morpholinomethyl)-[1,1′-biphenyl]-3-yl)-6-oxo-4-(trifluoromethyl)-1,6-dihydropyridine-3-carboxamide] |  | 7300 nM | 9.4 nM | 9.4 nM | 9.93 min |  |  | 
10 | CN1CCN(c2ncc(-c3cc(CN4CCOCC4)ccc3F)cc2NC(=O)c2c[nH]c(=O)cc2C(F)(F)F)CC1 [Example 84, N-(5-(2-fluoro-5-(morpholinomethyl)phenyl)-2-(4-methylpiperazin-1-yl)pyridin-3-yl)-6-oxo-4-(trifluoromethyl)-1,6-dihydropyridine-3-carboxamide] |  | > 30000 nM | 22 nM | 22 nM |  |  |  | 
11 | CNC(=O)c1ccc(F)c(-c2ccc(N3C[C@@H](C)N(C)[C@@H](C)C3)c(NC(=O)c3c[nH]c(=O)cc3C(F)(F)F)c2)c1 [Example 90, N-(2′-fluoro-5′-(methylcarbamoyl)-4-((3S,5R)-3,4,5-trimethylpiperazin-1-yl)-[1,1′-biphenyl]-3-yl)-6-oxo-4-(trifluoromethyl)-1,6-dihydropyridine-3-carboxamide] |  | 1090 nM | 6.5 nM | 6.4 nM | 3 min |  |  | 
12 | C[C@@H]1CN(c2ccc(-c3cc(C(=O)NC4CC4)ccc3F)cc2NC(=O)c2c[nH]c(=O)cc2C(F)(F)F)C[C@H](C)N1C [Example 93, N-(5′-(cyclopropylcarbamoyl)-2′-fluoro-4-((3S,5R)-3,4,5-trimethylpiperazin-1-yl)-[1,1′-biphenyl]-3-yl)-6-oxo-4-(trifluoromethyl)-1,6-dihydropyridine-3-carboxamide] |  | 197 nM | 3.1 nM | 3 nM | 9.6 min |  |  | 
13 | C[C@H]1CN(c2ccc(-c3ncccc3F)cc2NC(=O)c2c[nH]c(=O)cc2C(F)(F)F)CCN1C [Example 96, (S)—N-(2-(3,4-dimethylpiperazin-1-yl)-5-(3-fluoropyridin-2-yl)phenyl)-6-oxo-4-(trifluoromethyl)-1,6-dihydropyridine-3-carboxamide] |  | 2530 nM | 2.6 nM | 3 nM |  |  |  | 
14 | CN1CCN(c2ccc(-c3cc(CN4CCOCC4)ccc3F)c(F)c2NC(=O)c2c[nH]c(=O)cc2C(F)(F)F)CC1 [Example 99, N-(2,2′-difluoro-4-(4-methylpiperazin-1-yl)-5′-(morpholinomethyl)-[1,1′-biphenyl]-3-yl)-6-oxo-4-(trifluoromethyl)-1,6-dihydropyridine-3-carboxamide] |  | 3980 nM | 14 nM | 14 nM | 2.2 min |  |  | 
15 | CN1CCN(c2ccc(-c3cc(C(=O)N(C)C4CCCCC4)ccc3F)cc2NC(=O)c2c[nH]c(=O)cc2C(F)(F)F)CC1 [Example 110, N-(5′-(cyclohexyl(methyl)carbamoyl)-2′-fluoro-4-(4-methylpiperazin-1-yl)-[1,1′-biphenyl]-3-yl)-6-oxo-4-(trifluoromethyl)-1,6-dihydropyridine-3-carboxamide] |  | 607 nM | 4.2 nM | 4 nM | 7.2 min |  |  | 
16 | C[C@@H]1CN(c2ccc(-c3cc(C(=O)N(C)C4CCCCC4)ccc3F)cc2NC(=O)c2c[nH]c(=O)cc2C(F)(F)F)C[C@H](C)N1C [Example 111, N-(5′-(cyclohexyl(methyl)carbamoyl)-2′-fluoro-4-((3S,5R)-3,4,5-trimethylpiperazin-1-yl)-[1,1′-biphenyl]-3-yl)-6-oxo-4-(trifluoromethyl)-1,6-dihydropyridine-3-carboxamide] |  | 203 nM | 2.4 nM | 24 nM | 34 min |  |  | 
17 | C[C@@H]1CN(c2ccc(-c3cc(CN(C)C4COC4)c(F)cc3F)cc2NC(=O)c2c[nH]c(=O)cc2C(F)(F)F)C[C@H](C)N1C [Example 113, N-(2′,4′-difluoro-5′-((methyl(oxetan-3-yl)amino)methyl)-4-((3S,5R)-3,4,5-trimethylpiperazin-1-yl)-[1,1′-biphenyl]-3-yl)-6-oxo-4-(trifluoromethyl)-1,6-dihydropyridine-3-carboxamide] |  | 2100 nM | 8.2 nM | 8 nM | 5.5 min |  |  | 
18 | C[C@@H]1CN(c2ccc(-c3c(F)ccc(CNC4CCCCC4)c3F)cc2NC(=O)c2c[nH]c(=O)cc2C(F)(F)F)C[C@H](C)N1C [Example 114, N-(3′-((cyclohexylamino)methyl)-2′,6′-difluoro-4-((3S,5R)-3,4,5-trimethylpiperazin-1-yl)-[1,1′-biphenyl]-3-yl)-6-oxo-4-(trifluoromethyl)-1,6-dihydropyridine-3-carboxamide] |  | 11100 nM | 13 nM | 13 nM | 4.3 min |  |  | 
19 | CC1CN(c2ccc(-c3cc(C(=O)NC4CCCCC4)ccc3F)cc2NC(=O)c2c[nH]c(=O)cc2C(F)(F)F)CC(C)N1C (stereo not shown) [Example 124, N-(5′-(cyclohexylcarbamoyl)-2′-fluoro-4-(3,4,5-trimethylpiperazin-1-yl)-[1,1′-biphenyl]-3-yl)-6-oxo-4-(trifluoromethyl)-1,6-dihydropyridine-3-carboxamide] |  | 293 nM | 1.7 nM | 1.7 nM | 20.6 min |  |  | 
20 | CN1CCN(c2ccc(-c3cc(CN4CCC(F)CC4)ccc3F)cc2NC(=O)c2c[nH]c(=O)cc2C(F)(F)F)CC1 [drawing 287] |  |  |  |  |  | 592 nM | 5.44 min | 11 nM
